One experiment relates to cells. Nature of the experiment: Induction of apoptosis by the ARTS C terminus. It counts as cell-based. The method, then: Cells were incubated for 24 hours with no peptide (negative control) or with 100 micromolar (mcM) peptides corresponding to residues 1-9 (“pep1”), 10-18 (“pep2”), or 19-27 (“pep3”) of the ARTS C-terminus Apoptotic cells were detected using DAPI staining or TUNEL. For TUNEL assays, the cells were fixed and permeabilized. Apoptosis levels were determined using the TUNEL In situ™ cell death detection TMR kit (Roche) according to the manufacturer's protocol. All samples were coded, and experiments were performed in a blind manner.

Experiment [1] deals with T1, Bir3 domain of XIAP protein (Homo sapiens, UniProt P98170).
T1 construct: vectors expressing either the Bir3 domain of XIAP protein fused to GST; expressed in transfected cells; host or cells: COS-7
T1 sequence (P98170 265-330 limits assumed): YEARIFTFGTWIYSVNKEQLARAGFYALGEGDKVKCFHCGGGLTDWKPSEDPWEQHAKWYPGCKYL
Nature of the experiment: Co-immunoprecipitation of myc-tagged ARTS C-terminus with GST-Bir3 on glutathione beads in transfected, staurosporine-treated COS-7 cells. It counts as binding. The note with it: COS-7 cells co-transfected, 1.25 μM staurosporine for 1 hr, Western blot with anti-ARTS C-terminus antibody. As for the experimental part: COS-7 cells were transfected with 2.5 μg each of vectors expressing either the Bir3 domain of XIAP protein fused to GST or the GST alone, together with the myc-tagged ARTS C-terminus or myc-ARTS alone. After 40 hr, cells were exposed to 1.25 μM staurosporine for 1 hr and then washed in phosphate-buffered saline (PBS), scraped off the dish, pelleted, resuspended in 20 μL lysis buffer (150 mM NaCl, 50 mM Tris-HCl (pH 8), 1% NP-40, 0.5% deoxycholate acid, protease inhibitors (Mini Complete®, Roche Applied Science, Indianapolis, Ind.), and incubated on ice for 20 min.
Lysis buffer was added to lysate containing 400 mcg total protein, to a final volume of 1 ml. 100 mcL of 20% glutathione beads was added, and the mixture was rotated at 7.5° C. overnight. Beads were centrifuged at 400×g for 2 min and washed 3 times in 1 ml RIPA buffer (0.1% SDS, 1% NP-40, 0.5% deoxycholate acid, 150 mM NaCl, 50 mM Tris-HCl (pH 8), protease inhibitors). The pellet was boiled for 5 min in an additional 25 mcL RIPA buffer and 10 mcL 4× loading buffer, then the sample was electrophoresed on an SDS poly-acrylamide gel, transferred to PVDF membrane, and subjected to Western blot using monoclonal antibody directed against the ARTS C-terminus. Blots were developed with the West Pico kit (Pierce Biotechnology, Rockford, Ill.).
(In western blotting, separated proteins are transferred to a membrane and probed.)

As for “YGPSLRLLAPPGAVKGTGQEHQGQGCH [ARTS C terminus]”, the Induction of apoptosis result with cells is recorded as “sufficient for induction of apoptosis”. Further, the “Interaction with GST-Bir3 domain of XIAP (co-precipitation with glutathione beads)” value in experiment [1] is given as “co-precipitated”.
